The values below are quoted from earlier work in patent US8247391B2, “Gel compositions” (De Montfort University, priority 2001, dated 2012).

For the data set the following is noted: room temperature, pH 7.3 buffer (with antioxidants).

Values after ≈ are worked out from the molar mass of the structure shown.

As to `CC1=C(/C=C/C(C)=C/C=C/C(C)=C/C=O)C(C)(C)CCC1` [retinal, retinaldehyde], the water solubility was 0.11 µM (≈ 0.0313 µg/mL).

Turning to `CC1=C(/C=C/C(C)=C/C=C/C(C)=C/CO)C(C)(C)CCC1` [retinol, Retinol], the water solubility was 0.06 µM (≈ 0.0172 µg/mL).

As for `CC1=C(/C=C/C(C)=C/C=C/C(C)=C/C(=O)O)C(C)(C)CCC1` [retinoic acid], the water solubility was 0.21 µM (≈ 0.0631 µg/mL).
